What was measured:
Assay in all cases: relative viability (nuclei count vs DMSO), 5 days (fraction); higher = more cells survive
Tivantinib + Phenformin = compound: O=C1NC(=O)[C@@H](c2cn3c4c(cccc24)CCC3)[C@@H]1c1c[nH]c2ccccc12 [Tivantinib] + N=C(N)NC(=N)NCCc1ccccc1 [Phenformin] (partner 250 µM)
Summary of the method: (§1)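 Relative viability divides the nuclei count in treated wells by that in vehicle wells. Lung cancer cell lines were seeded in 1536-well plates, dosed by pin tool the next day, and fixed and stained after 5 days in one step with final 0.05% Triton X-100, 1% formaldehyde and 1 ug/ml Hoechst. Dosing was a single drug or a fixed anchor-drug dose plus five library-drug doses (not always all listed) in √10 steps, and values are medians of duplicate plates imaged at 4×.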

Tivantinib = compound: O=C1NC(=O)[C@@H](c2cn3c4c(cccc24)CCC3)[C@@H]1c1c[nH]c2ccccc12 [Tivantinib]
Summary of the method: (§2)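 Five library-drug doses, separated by factors of √10, were pinned into 1536-well plates holding lung cancer cell lines after an overnight stay at 37 °C. Cells were fixed, permeabilised and Hoechst-stained in one step after 5 days without medium change, then imaged at 4×. Viability compares treated-well with vehicle-well nuclei, counted in MetaXpress, as a median across plates. Passing plates had control CV below 25% and at least one doubling.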

Crenolanib = compound: CC1(COc2ccc3c(c2)ncn3-c2ccc3cccc(N4CCC(N)CC4)c3n2)COC1 [Crenolanib]
Summary of the method: as §2

Crenolanib + Navitoclax = compound: CC1(COc2ccc3c(c2)ncn3-c2ccc3cccc(N4CCC(N)CC4)c3n2)COC1 [Crenolanib] + CC1(C)CCC(c2ccc(Cl)cc2)=C(CN2CCN(c3ccc(C(=O)NS(=O)(=O)c4ccc(N[C@H](CCN5CCOCC5)CSc5ccccc5)c(S(=O)(=O)C(F)(F)F)c4)cc3)CC2)C1 [Navitoclax] (partner 0.5 µM)
Summary of the method: as §1

Cell Line	relative viability (Tivantinib + Phenformin; first compound 0.01 µM)	relative viability (Tivantinib + Phenformin; first compound 0.03162 µM)	relative viability (Tivantinib + Phenformin; first compound 0.1 µM)	relative viability (Tivantinib + Phenformin; first compound 0.3162 µM)	relative viability (Tivantinib; 0.01 µM)	relative viability (Tivantinib; 0.03162 µM)	relative viability (Tivantinib; 0.1 µM)	relative viability (Tivantinib; 0.3162 µM)	relative viability (Crenolanib; 0.01 µM)	relative viability (Crenolanib; 0.03162 µM)	relative viability (Crenolanib; 0.1 µM)	relative viability (Crenolanib; 0.3162 µM)	relative viability (Crenolanib; 1 µM)	relative viability (Crenolanib + Navitoclax; first compound 0.01 µM)	relative viability (Crenolanib + Navitoclax; first compound 0.03162 µM)	relative viability (Crenolanib + Navitoclax; first compound 0.1 µM)	relative viability (Crenolanib + Navitoclax; first compound 0.3162 µM)	relative viability (Crenolanib + Navitoclax; first compound 1 µM)
NCI-H522	0.604	0.646	0.636	0.644	0.943	0.71	0.839	0.741	0.938	0.881	1.03	0.869	0.95	–	–	–	–	–
HCC-366	0.63	0.637	0.598	0.635	1.02	1.03	0.994	0.955	1.03	1.03	0.958	1.05	0.998	1.03	1.12	1.03	1.23	1.01
A-427	0.378	0.391	0.325	0.304	0.959	0.978	0.976	1.02	0.953	0.969	0.976	0.948	0.927	0.995	0.912	0.999	1.02	0.966
NCI-H23	0.732	0.886	0.749	0.792	0.975	0.762	0.982	1	1.03	0.929	0.911	1	0.766	0.805	0.992	0.899	1.03	0.822
NCI-H1755	0.591	0.591	0.589	0.666	1.05	0.991	0.956	1.09	0.965	1.03	0.989	1.03	0.959	0.974	1.02	0.998	1.01	0.993
EPLC-272H	0.248	0.294	0.296	0.0595	1.05	0.88	0.851	0.455	0.905	0.893	0.838	1.04	1.11	–	1.25	0.988	1.17	1.08
PC-3 [JPC-3]	0.459	0.494	0.506	0.355	1.04	1.13	1.08	0.697	1.08	1.01	0.93	1.06	0.977	0.783	0.788	0.754	0.841	0.869
NCI-H1975	0.398	0.421	0.403	0.357	1.02	0.956	0.837	0.825	1.1	0.977	0.907	0.887	0.838	1.18	1.02	0.954	1.17	1.24
NCI-H1703	–	–	–	–	1.22	0.923	0.895	0.795	0.948	0.759	0.534	0.313	0.21	1	0.657	0.286	0.254	0.198
HCC-44	0.325	0.171	0.225	0.215	1.02	1.03	1.02	0.908	1.04	0.965	0.994	0.986	0.806	0.951	0.998	0.961	0.987	0.94
SK-MES-1	0.676	0.672	0.619	0.673	1.06	0.912	0.91	0.915	1.05	1.01	0.973	1.06	0.936	1.4	1.4	1.25	1.45	1.2
NCI-H727	0.636	0.409	0.393	0.584	0.941	0.897	0.802	0.631	0.949	1.05	0.873	0.943	0.909	0.57	0.414	0.462	0.467	0.362
RERF-LC-KJ	0.454	0.442	0.407	0.335	1.01	1.03	0.996	0.763	1.04	1.01	1	1.06	1.02	0.962	0.729	1.04	1.33	0.948
NCI-H1623	0.574	0.547	0.49	–	0.978	0.961	0.911	–	1.08	0.968	0.876	1.01	0.94	–	–	–	–	–
Calu-6	–	–	–	–	0.989	1.03	0.977	0.989	1.1	0.992	0.978	1.08	0.959	1.02	0.781	0.826	0.941	0.838
LCLC-103H	0.327	0.312	0.378	0.374	0.895	0.842	0.963	0.951	1.01	1.01	0.892	0.983	0.92	–	–	–	–	–
